Results published in ChEMBL document CHEMBL1201862, “PubChem BioAssay data set” (2004).
“And” between values parts separate entries of the source, which are not always exact repeats. Equal values may be shown once.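 Briefly, cells in 96-well plates were exposed to five compound concentrations for 48 h, and endpoints were estimated by linear interpolation. GI50 is the concentration that inhibits growth by half.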 The source made the active and inactive calls. Cut-off read from the data, not from the text of the source: active = GI50 up to about 1.1 µM and inactive = higher.

Columns and labels:
Assay in all cases: NCI-60 cell line screen, 48 h
SW-620 = test system: SW-620
SN12C = test system: SN12C
M14 = test system: M14
ACHN = test system: ACHN
UO-31 = test system: UO-31
OVCAR-8 = test system: OVCAR-8
SNB-75 = test system: SNB-75
A498 = test system: A498
MOLT-4 = test system: MOLT-4
HOP-62 = test system: HOP-62
CCRF-CEM = test system: CCRF-CEM
HCT-15 = test system: HCT-15
NCI-H23 = test system: NCI-H23
RPMI-8226 = test system: RPMI-8226
NCI-H460 = test system: NCI-H460
COLO 205 = test system: COLO 205
HOP-92 = test system: HOP-92
MDA-MB-231 = test system: MDA-MB-231
HCC 2998 = test system: HCC 2998
LOX IMVI = test system: LOX IMVI

## COc1ccc(-c2[nH]c(=O)n(C3OC(CO)C(O)C(O)C3O)c(=O)c2C#N)cc1 (configuration not stated)
SW-620
  GI50: > 100 µM (inactive)
SN12C
  GI50: > 100 µM (inactive)
M14
  GI50: > 100 µM (inactive)
ACHN
  GI50: > 100 µM (inactive)
UO-31
  GI50: > 100 µM (inactive)
OVCAR-8
  GI50: > 100 µM (inactive)
SNB-75
  GI50: > 100 µM (inactive)
A498
  GI50: > 100 µM (inactive)
MOLT-4
  GI50: > 100 µM (inactive)
HOP-62
  GI50: > 100 µM (inactive)
CCRF-CEM
  GI50: > 100 µM (inactive)
HCT-15
  GI50: > 100 µM
NCI-H23
  GI50: > 100 µM (inactive)
RPMI-8226
  GI50: > 100 µM (inactive)
NCI-H460
  GI50: > 100 µM (inactive)
COLO 205
  GI50: > 100 µM (inactive)
HOP-92
  GI50: > 100 µM (inactive)
MDA-MB-231
  GI50: > 100 µM (inactive) and 81.5 µM (inactive)
HCC 2998
  GI50: > 100 µM (inactive)

## COc1ccc(-c2nc(SCC(=O)N/N=C/c3ccc(N(C)C)cc3)[nH]c2-c2ccc(OC)cc2)cc1
SW-620
  GI50: 48 µM (inactive)
SN12C
  GI50: 82 µM (inactive)
M14
  GI50: 35.2 µM (inactive)
ACHN
  GI50: 51.9 µM (inactive)
UO-31
  GI50: 82.8 µM (inactive)
OVCAR-8
  GI50: 84.7 µM (inactive)
SNB-75
  GI50: 62.8 µM (inactive)
A498
  GI50: 71.9 µM (inactive)
HOP-62
  GI50: > 100 µM (inactive)
CCRF-CEM
  GI50: 8.57 µM (inactive)
HCT-15
  GI50: 46.3 µM
NCI-H23
  GI50: > 100 µM (inactive)
NCI-H460
  GI50: 32.7 µM (inactive)
COLO 205
  GI50: 10.2 µM (inactive)
LOX IMVI
  GI50: 92.9 µM (inactive)
HOP-92
  GI50: > 100 µM (inactive)
MDA-MB-231
  GI50: > 100 µM (inactive)
HCC 2998
  GI50: 75.9 µM (inactive)

## C(=N\NC1=NCCN1)/c1ccc(-c2cn3cc(/C=N/NC4=NCCN4)ccc3n2)cc1
SW-620
  GI50: > 28.2 µM (inactive)
SN12C
  GI50: > 36.9 µM (inactive)
M14
  GI50: > 32.7 µM (inactive)
ACHN
  GI50: 34.6 µM (inactive)
UO-31
  GI50: 46 µM (inactive)
OVCAR-8
  GI50: 37.5 µM (inactive)
SNB-75
  GI50: > 100 µM (inactive)
A498
  GI50: 40.3 µM (inactive)
MOLT-4
  GI50: 5.35 µM (inactive)
CCRF-CEM
  GI50: 2.74 µM (inactive)
HCT-15
  GI50: > 68.4 µM
NCI-H23
  GI50: > 100 µM (inactive)
RPMI-8226
  GI50: 16.6 µM (inactive)
NCI-H460
  GI50: 3.76 µM (inactive)
COLO 205
  GI50: > 100 µM (inactive)
LOX IMVI
  GI50: 7.74 µM (inactive)
HOP-92
  GI50: 18.8 µM (inactive)
MDA-MB-231
  GI50: 14.6 µM (inactive)
HCC 2998
  GI50: > 47.2 µM (inactive)

## O=C1c2cc([N+](=O)[O-])sc2C(=O)c2c([N+](=O)[O-])csc21
SW-620
  GI50: 0.31 µM (active)
SN12C
  GI50: 0.542 µM (active)
M14
  GI50: 0.367 µM (active)
ACHN
  GI50: 0.324 µM (active)
UO-31
  GI50: 1.87 µM (inactive)
OVCAR-8
  GI50: 0.785 µM (active)
SNB-75
  GI50: 1.77 µM (inactive)
A498
  GI50: 1.92 µM (inactive)
MOLT-4
  GI50: 0.229 µM (active)
CCRF-CEM
  GI50: 0.0759 µM (active)
HCT-15
  GI50: 0.482 µM
NCI-H23
  GI50: 0.711 µM (active)
RPMI-8226
  GI50: 0.282 µM (active)
NCI-H460
  GI50: 1.55 µM (inactive)
COLO 205
  GI50: 0.925 µM (active)
LOX IMVI
  GI50: 0.112 µM (active)
HOP-92
  GI50: 0.29 µM (active)
MDA-MB-231
  GI50: 0.551 µM (active)
HCC 2998
  GI50: 0.782 µM (active)

## NCC1OC(OC2C(N)CC(N)C(O)C2OC2OC(CO)C(O)C2O)C(N)C(O)C1O (configuration not stated)
SW-620
  GI50: > 100 µM (inactive)
SN12C
  GI50: > 50 µM (inactive)
M14
  GI50: > 50 µM (inactive)
ACHN
  GI50: > 50 µM (inactive)
UO-31
  GI50: > 100 µM (inactive)
OVCAR-8
  GI50: > 50 µM (inactive)
SNB-75
  GI50: 27.8 µM (inactive)
A498
  GI50: > 50 µM (inactive)
MOLT-4
  GI50: > 50 µM (inactive)
HOP-62
  GI50: > 50 µM (inactive)
CCRF-CEM
  GI50: > 100 µM (inactive)
HCT-15
  GI50: > 100 µM
NCI-H23
  GI50: > 100 µM (inactive)
NCI-H460
  GI50: > 50 µM (inactive)
LOX IMVI
  GI50: > 50 µM (inactive)
HOP-92
  GI50: > 50 µM (inactive)
MDA-MB-231
  GI50: > 50 µM (inactive)
HCC 2998
  GI50: > 50 µM (inactive)

## C[N+](C)(CCNc1ccc(NCC[N+](C)(C)Cc2ccc([N+](=O)[O-])cc2)c2c1C(=O)c1ccccc1C2=O)Cc1ccc([N+](=O)[O-])cc1
SW-620
  GI50: > 100 µM (inactive)
SN12C
  GI50: > 100 µM (inactive)
M14
  GI50: > 100 µM (inactive)
ACHN
  GI50: > 100 µM (inactive)
UO-31
  GI50: > 100 µM (inactive)
OVCAR-8
  GI50: > 100 µM (inactive)
SNB-75
  GI50: > 100 µM (inactive)
A498
  GI50: > 100 µM (inactive)
MOLT-4
  GI50: > 100 µM (inactive)
HOP-62
  GI50: > 100 µM (inactive)
CCRF-CEM
  GI50: > 100 µM (inactive)
HCT-15
  GI50: > 100 µM
NCI-H23
  GI50: > 100 µM (inactive)
NCI-H460
  GI50: > 100 µM (inactive)
COLO 205
  GI50: > 100 µM (inactive)
LOX IMVI
  GI50: > 100 µM (inactive)
HOP-92
  GI50: > 100 µM (inactive)
MDA-MB-231
  GI50: > 100 µM (inactive)
HCC 2998
  GI50: > 100 µM (inactive)
